In paper PMC12802961 (Journal of Antimicrobial Chemotherapy, 2025):

Columns and labels:
[1] = Single-dose plasma pharmacokinetics, s.c., infected neutropenic mice; conditions: cefepime; one-compartment model; serum/plasma, s.c., infected mice
Method: All animal procedures were carried out in the Animal Facility for Medical and Scientific Purposes of the University General Hospital Attikon (EL 25 BIO 014), Athens, Greece. […] Outbred female CD-1 mice, obtained by the Hellenic Pasteur Institute, Greece, and Charles River Laboratories Models and Services, Germany, were used at the age of 7–8 weeks, weighing 20–25 g. The animals were allowed to acclimatize for at least 5 days upon arrival and were housed under standard conditions with water and food supplied ad libitum. […] Infection was induced (Day 0) by intramuscular injection of 0.05 mL bacterial inoculum of approximately 10^5–10^6 cfu/thigh.
The dose was administered s.c. (0.1 mL) 2 h after infection (t = 0 h). Blood samples were collected in 1 mL K3EDTA tubes through orbital sinus bleeding under isoflurane anaesthesia. Animals were immediately euthanized through cervical dislocation and blood samples taken at timepoints 0, 0.08, 0.25, 0.5, 0.75, 1, 1.5, 2, 3, 4, 6, and 8 h after single dose injection. Blood samples were centrifuged immediately after collection in a pre-cooled centrifuge, and plasma was stored at −80°C. For each timepoint two animals were euthanized in order to have duplicates for each condition.
The Cmax values were calculated from raw data and the AUCs were calculated using the trapezoidal rule. […] Equations used in the program were the classical polyexponential equations Ci(t) = PolyExp(i, n, t), where i = number of the compartments, n = number of doses and t = time from last dose (http://www.boomer.org/c/p4/c19/c19.pdf). The %fT > Ct was then determined using a bisectional rootfinder for intersections between simulated curve and concentration, and calculating the difference between intersection values. Free drug concentrations were used in all calculations.
For taniborbactam, a population pharmacokinetic model was developed using nonlinear mixed-effects modelling (NONMEM). The analysis was performed on the natural logarithm of the concentrations using the FOCE method with INTERACTION. All mice were assumed to weigh 1kg, resulting in PK parameters corresponding to a per kg base. […] Tools used to evaluate and visualize the model were RStudio (v0.98.1049), R (v3.1.2), XPose (v4.5.3) and PsN (v4.6.0), all with the graphical interface Pirana (v2.9.0).
To determine the structural pharmacokinetic model 1-, 2- and 3-compartment models were tested. Pharmacokinetic parameters were estimated in terms of central and peripheral volume of distribution (Vc and Vp), clearance (CL), and intercompartmental clearance (Q). Addition of interindividual variability (IPV), described using an exponential eta model, was evaluated for each pharmacokinetic parameter. The covariance between values for IPV was estimated using a […] matrix. Residual variability between observed and predicted plasma concentrations was described using an additional error model for logarithmically transformed data. The minimum value of objective function (OFV) was used as a criterion for model selection. […] Model adequacy was further evaluated by using various residual plots (‘goodness-of-fit’ plots) and values of random effects in variances. In the second step relationships between pharmacokinetic parameters and potential covariates were investigated. […] Dose covariates were modelled by using an exponential model, place of infection was modelled proportionally. Criteria for the inclusion of covariates in the model were the OFV, results of graphical evaluation of the parameter-covariate relationship and the decrease in parameter variability.
Three procedures were used to validate the final model. As an internal validation method, a bootstrap resampling method was used. Bootstrap datasets (n=1000) were generated by sampling randomly from the original dataset with replacement. Parameters were estimated for each of the replicate datasets using the developed model.

[2] = human simulated regimen of cefepime 2 g q8h as 2 h infusion; cited from earlier work
[3] = system: KPC P. aeruginosa; conditions: KPC P. aeruginosa strain of previous animal study, cited from earlier work
[4] = system: E. coli 52; assay: Neutropenic murine thigh infection model; type: in vivo, Escherichia coli
Method: (§1) All dosing regimens were performed in at least two animals per dosing regimen.
(§2) At t = 0 h, 2 h after infection, two mice were humanely euthanized to determine the initial number of cfu/thigh just before treatment. […] Subsequently, thighs were homogenized using the Ultra-Turrax homogenizer (IKA Labortechnik, Germany). For each thigh 10-fold dilution series were prepared and 3 × 10 µL per dilution were plated (Chromagar, bioMérieux, NL). The following day, colonies were counted and the number of cfu/thigh was calculated.
(§3) Free drug concentrations were used in all calculations.

[5] = system: KPC K. pneumoniae; conditions: KPC K. pneumoniae strain of previous animal study, cited from earlier work
[6] = Protein binding, equilibrium dialysis chamber, LC-MS/MS; type: in vitro ADME
Excerpt: […]. […] […].
. […] Free drug concentrations were used in all calculations. […]

[7] = system: K. pneumoniae 59; assay: Neutropenic murine thigh infection model; type: in vivo, Klebsiella pneumoniae
Method: as §1, §2, §3

[8] = cefepime monotherapy q2h, extrapolated
[9] = cefepime monotherapy, extrapolated

In the case of `CO/N=C(\C(=O)N[C@@H]1C(=O)N2C(C(=O)[O-])=C(C[N+]3(C)CCCC3)CS[C@H]12)c1csc(N)n1` [cefepime, Cefepime], the “absorbance rate Ka” value [1] is listed as 15 h⁻¹, the fAUC0-24 [2] is listed as about 787.8 µg·h/mL and the “unpotentiated cefepime MIC” value [3] is listed as over 512 µg/mL. The “potentiated cefepime MIC” value ([3]; with taniborbactam) was 4 µg/mL, the “1 log10 kill: %ƒT > MIC” value [4, 8] was “(53.9) %” and the “1 log10 kill: Total daily dose, mg/kg” value [4, 8] was “(5237.2) mg/kg”. For the same compound, the “Stasis: %ƒT > MIC” value [4, 8] was “(36.5) %”, the “Stasis: Total daily dose, mg/kg” value ([4]; cefepime monotherapy q2h s.c. 24 h, extrapolated, Emax model) was “(1857.2) mg/kg” and the “1 log10 kill: q2h dose, mg/kg” value [4, 9] was “(436.4) mg/kg”. For the same compound, the “Stasis: q2h dose, mg/kg” value [4, 9] was “(154.8) mg/kg”, the “Cefepime %fT > potMIC” value ([4]; cefepime q2h 4 mg/kg, potMIC 0.06 mg/L (with 4 mg/L taniborbactam)) was 80.70% and the “unpotentiated cefepime MIC” value [5] was over 512 µg/mL. The “potentiated cefepime MIC” value ([5]; with taniborbactam) was 2 µg/mL, the fraction unbound [6] was 0.8 and the “Stasis: q2h dose” value ([7]; cefepime monotherapy) was 117.8 mg/kg. The “Stasis: %ƒT > MIC” value ([7]; cefepime monotherapy q2h) was 0.0%, the “1 log10 kill: %ƒT > MIC” value ([7]; cefepime monotherapy q2h, belongs to extrapolated dose) was 15.9% and the “1 log10 kill: Total daily dose, mg/kg” value [7, 8] was “(4371.3) mg/kg”. For the same compound, the “Stasis: Total daily dose” value ([7]; cefepime monotherapy q2h s.c. 24 h) was 1413.4 mg/kg, the “1 log10 kill: q2h dose, mg/kg” value [7, 9] was “(364.0) mg/kg” and the “Cefepime %fT > potMIC” value ([7]; cefepime q2h 4 mg/kg, potMIC 0.5 mg/L (with 4 mg/L taniborbactam)) was 69.30%.
